Key:
[1] = tested on: PBMC; experiment: Concentration required to inhibit LPS-induced TNFalpha production in human peripheral blood mononuclear cells; n=3; format: functional, cell-based
[2] = In vitro permeability of compound into Caco-2 cells; format: ADME, cell-based; conditions: human, read-out: Permeability
[3] = tested on: PHA-Ly; experiment: In vitro cytotoxic effect of compound (30 uM) on PHA blast cells compared to control after 24 hours of treatment; format: functional, Homo sapiens
[4] = Metabolic rate as a measure of compound stability in human liver microsomes; format: ADME, Microsome
[5] = Half-life of compound evaluated in mice after intravenous administration; format: ADME, organism-based; conditions: mouse, in vivo
[6] = Oral bioavailability of compound after administration of a solution dose in PEG400; format: ADME, organism-based; conditions: eutheria, in vivo
[7] = Clearance of compound in mice after intravenous administration; format: ADME, organism-based; conditions: mouse, in vivo
[8] = Metabolic rate as a measure of compound stability in rat liver microsomes; format: ADME, Microsome
[9] = molecular target: MAP kinase p38 (Homo sapiens, UniProt O15264+Q15759+Q16539+P53778); experiment: Binding affinity for human p38 MAP kinase expressed in Escherichia coli using [gamma-33P]ATP; n=4
[10] = molecular target: Tyrosine-protein kinase Lck (Homo sapiens, UniProt P06239); experiment: Inhibitory concentration against Lck
[11] = molecular target: Mitogen-activated protein kinase 12 (Homo sapiens, UniProt P53778); experiment: Inhibitory concentration against p38 gamma
Sequence of Mitogen-activated protein kinase 12 (P53778 whole entry): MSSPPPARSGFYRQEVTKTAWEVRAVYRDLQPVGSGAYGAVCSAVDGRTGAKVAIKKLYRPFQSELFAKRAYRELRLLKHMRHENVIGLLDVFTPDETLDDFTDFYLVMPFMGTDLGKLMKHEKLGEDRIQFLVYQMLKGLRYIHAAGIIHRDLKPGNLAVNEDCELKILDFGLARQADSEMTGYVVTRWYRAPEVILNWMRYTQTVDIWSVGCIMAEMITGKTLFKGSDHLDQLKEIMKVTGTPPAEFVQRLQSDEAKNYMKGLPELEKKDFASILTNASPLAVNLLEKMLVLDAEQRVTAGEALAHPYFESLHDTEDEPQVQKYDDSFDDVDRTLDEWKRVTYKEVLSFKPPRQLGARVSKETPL

[12] = molecular target: Mitogen-activated protein kinase 13 (Homo sapiens, UniProt O15264); experiment: Inhibitory concentration against p38 delta
Sequence of Mitogen-activated protein kinase 13 (O15264 whole entry): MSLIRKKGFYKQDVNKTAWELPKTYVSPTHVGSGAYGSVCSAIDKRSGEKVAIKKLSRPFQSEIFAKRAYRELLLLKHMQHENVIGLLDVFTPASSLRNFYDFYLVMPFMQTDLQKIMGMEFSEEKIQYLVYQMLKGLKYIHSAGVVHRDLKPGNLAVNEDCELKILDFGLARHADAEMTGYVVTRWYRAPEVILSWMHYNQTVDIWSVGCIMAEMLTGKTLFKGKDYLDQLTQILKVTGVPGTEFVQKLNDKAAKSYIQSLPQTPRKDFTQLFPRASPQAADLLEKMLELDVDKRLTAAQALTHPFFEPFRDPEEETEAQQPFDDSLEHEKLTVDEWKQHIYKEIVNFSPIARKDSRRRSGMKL

[13] = molecular target: Fibroblast growth factor receptor (Homo sapiens, UniProt P22607+P11362+P22455+P21802); experiment: Inhibitory concentration against FGF receptor; format: protein assay
[14] = molecular target: Tyrosine-protein kinase ITK/TSK (Homo sapiens, UniProt Q08881); experiment: Inhibitory concentration against Itk
[15] = molecular target: Mitogen-activated protein kinase 14 (Homo sapiens, UniProt Q16539); experiment: Inhibitory concentration against p38 alpha
[16] = molecular target: Tyrosine-protein kinase JAK3 (Homo sapiens, UniProt P52333); experiment: Inhibitory concentration against JAK3
[17] = molecular target: Serine/threonine-protein kinase AKT (Homo sapiens, UniProt P31751+Q9Y243+P31749); experiment: Inhibitory concentration against Akt; format: protein assay
[18] = molecular target: Cyclin-dependent kinase 2 (Homo sapiens, UniProt P24941); experiment: Inhibitory concentration against CDK2
[19] = molecular target: Hepatocyte growth factor receptor (Homo sapiens, UniProt P08581); experiment: Inhibitory concentration against Met
Sequence of Hepatocyte growth factor receptor (P08581 whole entry): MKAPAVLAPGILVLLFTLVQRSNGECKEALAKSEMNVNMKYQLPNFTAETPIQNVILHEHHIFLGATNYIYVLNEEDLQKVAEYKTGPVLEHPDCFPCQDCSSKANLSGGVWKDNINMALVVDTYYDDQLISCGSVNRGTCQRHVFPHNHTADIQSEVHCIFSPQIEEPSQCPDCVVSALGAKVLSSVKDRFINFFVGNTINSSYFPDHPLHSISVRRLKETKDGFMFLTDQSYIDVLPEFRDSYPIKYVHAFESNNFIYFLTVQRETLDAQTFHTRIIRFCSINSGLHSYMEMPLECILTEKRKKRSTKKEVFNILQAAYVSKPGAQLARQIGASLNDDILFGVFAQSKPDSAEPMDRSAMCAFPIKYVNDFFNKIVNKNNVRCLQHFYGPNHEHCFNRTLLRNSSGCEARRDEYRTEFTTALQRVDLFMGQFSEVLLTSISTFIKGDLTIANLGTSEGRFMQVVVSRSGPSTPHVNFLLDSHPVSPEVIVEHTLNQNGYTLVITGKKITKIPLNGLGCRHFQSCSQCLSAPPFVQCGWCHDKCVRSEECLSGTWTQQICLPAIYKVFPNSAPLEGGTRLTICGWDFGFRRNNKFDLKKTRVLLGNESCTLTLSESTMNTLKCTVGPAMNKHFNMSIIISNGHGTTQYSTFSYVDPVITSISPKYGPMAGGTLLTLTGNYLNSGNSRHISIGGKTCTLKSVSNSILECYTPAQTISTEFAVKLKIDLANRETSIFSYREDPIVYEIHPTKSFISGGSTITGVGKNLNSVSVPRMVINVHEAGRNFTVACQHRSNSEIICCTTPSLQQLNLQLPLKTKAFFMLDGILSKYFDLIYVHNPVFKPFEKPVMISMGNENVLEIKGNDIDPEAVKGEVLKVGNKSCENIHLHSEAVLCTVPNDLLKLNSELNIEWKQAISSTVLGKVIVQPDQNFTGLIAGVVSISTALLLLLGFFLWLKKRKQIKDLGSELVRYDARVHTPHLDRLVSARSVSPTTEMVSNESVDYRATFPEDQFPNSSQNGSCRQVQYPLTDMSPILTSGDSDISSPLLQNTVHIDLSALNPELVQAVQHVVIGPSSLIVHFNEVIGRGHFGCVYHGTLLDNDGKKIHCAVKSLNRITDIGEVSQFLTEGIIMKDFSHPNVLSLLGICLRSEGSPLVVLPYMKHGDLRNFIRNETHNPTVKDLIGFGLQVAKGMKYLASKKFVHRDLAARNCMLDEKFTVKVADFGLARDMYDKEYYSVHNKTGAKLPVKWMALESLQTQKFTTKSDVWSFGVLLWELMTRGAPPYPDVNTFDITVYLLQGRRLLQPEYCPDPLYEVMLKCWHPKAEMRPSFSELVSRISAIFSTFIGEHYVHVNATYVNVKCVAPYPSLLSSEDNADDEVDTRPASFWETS

[20] = molecular target: Mitogen-activated protein kinase 1 (Homo sapiens, UniProt P28482); experiment: Inhibitory concentration against ERK
[21] = molecular target: Protein kinase C (PKC); experiment: Inhibitory concentration against PKC; format: protein assay
[22] = molecular target: Receptor tyrosine-protein kinase erbB-2 (Homo sapiens, UniProt P04626); experiment: Inhibitory concentration against HER2 (ErbB2)
Sequence of Receptor tyrosine-protein kinase erbB-2 (P04626 whole entry): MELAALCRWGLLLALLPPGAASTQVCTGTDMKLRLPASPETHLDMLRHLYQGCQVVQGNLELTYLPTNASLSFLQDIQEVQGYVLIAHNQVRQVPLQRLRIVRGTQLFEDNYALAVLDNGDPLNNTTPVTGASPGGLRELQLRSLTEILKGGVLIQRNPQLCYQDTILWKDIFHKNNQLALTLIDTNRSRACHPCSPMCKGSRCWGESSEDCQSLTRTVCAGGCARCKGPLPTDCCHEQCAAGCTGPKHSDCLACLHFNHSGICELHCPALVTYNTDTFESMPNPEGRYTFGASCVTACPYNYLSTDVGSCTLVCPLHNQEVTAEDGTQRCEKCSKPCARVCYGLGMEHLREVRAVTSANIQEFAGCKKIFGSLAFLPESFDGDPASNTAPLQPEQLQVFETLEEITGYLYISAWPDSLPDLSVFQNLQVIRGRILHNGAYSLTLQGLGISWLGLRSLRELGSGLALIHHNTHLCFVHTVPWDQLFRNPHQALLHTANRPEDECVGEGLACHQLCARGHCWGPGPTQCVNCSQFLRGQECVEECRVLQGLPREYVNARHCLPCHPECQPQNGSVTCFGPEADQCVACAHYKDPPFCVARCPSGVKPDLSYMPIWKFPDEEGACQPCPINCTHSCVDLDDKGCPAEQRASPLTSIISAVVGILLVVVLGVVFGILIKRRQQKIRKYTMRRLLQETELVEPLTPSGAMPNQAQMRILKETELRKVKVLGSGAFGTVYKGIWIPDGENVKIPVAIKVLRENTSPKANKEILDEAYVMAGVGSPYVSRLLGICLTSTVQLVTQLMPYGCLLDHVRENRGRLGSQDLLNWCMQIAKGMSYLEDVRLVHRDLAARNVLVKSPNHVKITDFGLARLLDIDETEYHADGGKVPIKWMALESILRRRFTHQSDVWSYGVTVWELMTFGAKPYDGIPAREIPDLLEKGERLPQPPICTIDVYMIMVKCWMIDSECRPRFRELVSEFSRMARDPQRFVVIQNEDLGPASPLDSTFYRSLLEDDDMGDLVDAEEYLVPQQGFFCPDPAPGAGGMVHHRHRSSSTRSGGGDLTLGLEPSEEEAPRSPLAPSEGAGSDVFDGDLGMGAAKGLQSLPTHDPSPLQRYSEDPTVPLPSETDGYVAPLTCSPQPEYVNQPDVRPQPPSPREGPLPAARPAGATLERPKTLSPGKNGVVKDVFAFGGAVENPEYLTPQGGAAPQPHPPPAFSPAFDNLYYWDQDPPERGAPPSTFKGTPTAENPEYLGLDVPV

[23] = molecular target: Tyrosine-protein kinase SYK (Homo sapiens, UniProt P43405); experiment: Inhibitory concentration against Syk
[24] = molecular target: Vascular endothelial growth factor receptor 2 (Homo sapiens, UniProt P35968); experiment: Inhibitory concentration against KDR
Sequence of Vascular endothelial growth factor receptor 2 (P35968 whole entry): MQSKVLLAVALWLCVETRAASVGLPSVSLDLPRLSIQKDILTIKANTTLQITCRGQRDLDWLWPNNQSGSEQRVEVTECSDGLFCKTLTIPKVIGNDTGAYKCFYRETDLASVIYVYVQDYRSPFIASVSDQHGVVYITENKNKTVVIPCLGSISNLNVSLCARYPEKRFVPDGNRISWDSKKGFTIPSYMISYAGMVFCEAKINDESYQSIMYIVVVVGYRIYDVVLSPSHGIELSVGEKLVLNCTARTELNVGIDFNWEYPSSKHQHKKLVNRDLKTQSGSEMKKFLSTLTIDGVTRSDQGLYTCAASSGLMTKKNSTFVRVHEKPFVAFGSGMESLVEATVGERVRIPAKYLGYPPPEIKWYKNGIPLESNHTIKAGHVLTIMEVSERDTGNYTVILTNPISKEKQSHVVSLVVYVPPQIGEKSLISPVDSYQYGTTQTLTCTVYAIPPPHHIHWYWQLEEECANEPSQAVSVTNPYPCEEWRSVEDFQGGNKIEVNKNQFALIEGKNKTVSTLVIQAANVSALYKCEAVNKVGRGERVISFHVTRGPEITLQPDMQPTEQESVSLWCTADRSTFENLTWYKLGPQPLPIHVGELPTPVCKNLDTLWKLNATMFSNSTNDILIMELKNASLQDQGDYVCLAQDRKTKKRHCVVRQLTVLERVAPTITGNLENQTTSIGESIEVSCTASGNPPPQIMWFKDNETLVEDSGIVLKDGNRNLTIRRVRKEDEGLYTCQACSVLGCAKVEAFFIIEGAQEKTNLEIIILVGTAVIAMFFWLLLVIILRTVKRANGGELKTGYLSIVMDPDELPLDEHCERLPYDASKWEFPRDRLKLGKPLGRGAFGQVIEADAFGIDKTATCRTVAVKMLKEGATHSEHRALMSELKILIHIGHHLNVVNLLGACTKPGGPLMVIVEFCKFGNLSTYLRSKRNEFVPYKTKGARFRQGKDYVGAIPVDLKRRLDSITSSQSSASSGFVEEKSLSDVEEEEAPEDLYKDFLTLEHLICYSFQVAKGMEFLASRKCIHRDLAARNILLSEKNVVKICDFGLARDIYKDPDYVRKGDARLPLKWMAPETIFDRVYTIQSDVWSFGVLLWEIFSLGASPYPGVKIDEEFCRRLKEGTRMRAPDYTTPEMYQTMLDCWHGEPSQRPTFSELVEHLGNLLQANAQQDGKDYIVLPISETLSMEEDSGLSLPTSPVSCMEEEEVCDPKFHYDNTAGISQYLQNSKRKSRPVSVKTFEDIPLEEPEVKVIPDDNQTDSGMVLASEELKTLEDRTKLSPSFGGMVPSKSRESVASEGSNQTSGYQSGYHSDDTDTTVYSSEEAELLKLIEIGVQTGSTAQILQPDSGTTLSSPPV

[25] = molecular target: Inhibitor of NF-kappa-B kinase (IKK) (Homo sapiens, UniProt O14920+O15111+Q9Y6K9); experiment: Inhibitory concentration against IKK; format: protein-complex assay
[26] = molecular target: Mitogen-activated protein kinase 11 (Homo sapiens, UniProt Q15759); experiment: Inhibitory concentration against p38 beta
Sequence of Mitogen-activated protein kinase 11 (Q15759 whole entry): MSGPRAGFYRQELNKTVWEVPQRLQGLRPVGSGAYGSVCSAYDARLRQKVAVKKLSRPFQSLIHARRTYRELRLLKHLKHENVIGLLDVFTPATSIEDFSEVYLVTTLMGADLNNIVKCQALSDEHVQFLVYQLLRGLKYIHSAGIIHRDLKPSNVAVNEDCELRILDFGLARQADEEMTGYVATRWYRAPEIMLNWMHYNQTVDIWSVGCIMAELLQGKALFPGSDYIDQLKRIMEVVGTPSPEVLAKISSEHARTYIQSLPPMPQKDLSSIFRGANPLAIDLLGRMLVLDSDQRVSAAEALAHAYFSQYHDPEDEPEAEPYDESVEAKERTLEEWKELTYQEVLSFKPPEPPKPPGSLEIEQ

[27] = molecular target: Dual specificity mitogen-activated protein kinase kinase 1 (Homo sapiens, UniProt Q02750); experiment: Inhibitory concentration against MEK
[28] = molecular target: Glycogen synthase kinase-3 (Homo sapiens, UniProt P49840+P49841); experiment: Inhibitory concentration against GSK-3; format: protein assay
[29] = molecular target: RAF proto-oncogene serine/threonine-protein kinase (Homo sapiens, UniProt P04049); experiment: Inhibitory concentration against Raf
[30] = molecular target: cAMP-dependent protein kinase (PKA) (Homo sapiens, UniProt P22694+P17612+P22612); experiment: Inhibitory concentration against PKA; format: protein assay
[31] = molecular target: MAP kinase-activated protein kinase 2 (Homo sapiens, UniProt P49137); experiment: Inhibitory concentration against MK2
[32] = molecular target: Insulin-like growth factor 1 receptor (Homo sapiens, UniProt P08069); experiment: Inhibitory concentration against IGF-IR

CNc1nc(Nc2cc(C(=O)NOC)ccc2C)c(C#N)c(N(C)CC(C)(C)C)n1
IC50 [1]: 64 µM

CONC(=O)c1ccc(C)c(Nc2ncnc(N(C)CC(C)(C)C)c2C#N)c1
IC50 [1]: 42 µM

CCn1nccc1NC(=O)c1ccc(C)c(Nc2ncnc(NC(C)C)c2C#N)c1
IC50 [1]: 130 µM

CONC(=O)c1ccc(C)c(Nc2nc(N3CCCN(C)CC3)nc(N(C)CC(C)(C)C)c2C#N)c1
IC50 [1]: 0.33 µM

Cc1ccc(C(=O)Nc2ccon2)cc1Nc1nc(N)nc(NC(C)C)c1C#N
IC50 [1]: 18 µM

Cc1ccc(C(=O)Nc2ccon2)cc1Nc1nc(N)nc(NC2CCCC2)c1C#N
IC50 [1]: 1.5 µM

CNc1ncnc(Nc2cc(C(=O)NOC)ccc2C)c1C#N
IC50 [1]: > 250 µM

CCn1nccc1NC(=O)c1ccc(C)c(Nc2ncnc(NC3CCCC3)c2C#N)c1
IC50 [1]: 72 µM

CCn1nccc1NC(=O)c1ccc(C)c(Nc2nc(N)nc(NC3CCCC3)c2C#N)c1
IC50 [1]: 21 µM

Cc1ccc(C(=O)Nc2ccon2)cc1Nc1ncnc(NC(C)C)c1C#N
Papp [2]: 23.9 ×10⁻⁶ cm/s | Control [3]: 82% | Metabolic rate [4]: 0.012 nmol/min*mg of protein | half-life [5]: 1.7 h | IC50 [1]: 8.7 µM | bioavailability [6]: 100% | clearance [7]: 28.3 mL/min/kg | Metabolic rate [8]: 0.22 nmol/min*mg of protein

CONC(=O)c1ccc(C)c(Nc2ncnc(NC3CCCC3)c2C#N)c1
IC50 [1]: 4.1 µM | Ki [9]: 0.00042 µM

CONC(=O)c1ccc(C)c(Nc2nc(N)nc(N(C)CC(C)(C)C)c2C#N)c1
IC50 [1]: 17 µM

CCn1nccc1NC(=O)c1ccc(C)c(Nc2nc(N)nc(NC(C)C)c2C#N)c1
IC50 [1]: 67 µM

CONC(=O)c1ccc(C)c(Nc2ncnc(NC(C)C)c2C#N)c1
IC50 [1]: 4.6 µM

CCCNc1ncnc(Nc2cc(C(=O)NOC)ccc2C)c1C#N
IC50 [1]: 158 µM

Cc1ccc(C(=O)Nc2ccon2)cc1Nc1ncnc(NC2CCCC2)c1C#N
IC50 [10]: > 50 µM | IC50 [11]: > 30 µM | IC50 [12]: > 30 µM | IC50 [13]: > 50 µM | IC50 [14]: > 50 µM | IC50 [15]: 0.0041 µM | IC50 [16]: > 50 µM | IC50 [17]: > 50 µM | IC50 [18]: > 100 µM | IC50 [19]: > 50 µM | IC50 [20]: > 5 µM | IC50 [21]: > 50 µM | IC50 [22]: > 50 µM | IC50 [1]: 3.5 µM | IC50 [23]: > 50 µM | IC50 [24]: > 30 µM | IC50 [25]: > 10 µM | IC50 [26]: < 0.1 µM | IC50 [27]: > 25 µM | IC50 [28]: > 50 µM | IC50 [29]: > 30 µM | IC50 [30]: > 50 µM | IC50 [31]: > 50 µM | IC50 [32]: > 50 µM
